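Where inhibition never reached the appropriate level, the endpoint shown equals the highest concentration tested. Otherwise, values were interpolated linearly from a five-concentration, 48-hour dose response in 96-well plates. GI50 marks 50% less growth.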 Calls of active or inactive are those of the source. Rule as the data show it: active = GI50 up to about 1.1 µM and inactive = higher.
Legend:
Experiment in all cases: inhibition of tumour cell growth, NCI panel, 48 h
CAKI-1 = system: CAKI-1
COLO 205 = system: COLO 205
HCC 2998 = system: HCC 2998
HOP-62 = system: HOP-62
HT-29 = system: HT-29
KM-20L2 = system: KM-20L2
LOX IMVI = system: LOX IMVI
MOLT-4 = system: MOLT-4
NCI-H460 = system: NCI-H460
SF-268 = system: SF-268
SK-MEL-28 = system: SK-MEL-28
SK-MEL-5 = system: SK-MEL-5
SN12C = system: SN12C
SNB-75 = system: SNB-75
U-251 = system: U-251
KM12 = system: KM12
DU-145 = system: DU-145
MCF7 = system: MCF7
NCI-H522 = system: NCI-H522
NCI/ADR-RES = system: NCI/ADR-RES

Measured: GI50

Cc1ccc(S(=O)(=O)N/N=C2\C(=O)C3CC2C(Cl)C3Cl)cc1 (stereo not given)
inactive: CAKI-1 > 100 µM | COLO 205 > 100 µM | HCC 2998 > 100 µM | HOP-62 > 100 µM | HT-29 > 100 µM | KM-20L2 > 100 µM | LOX IMVI > 100 µM | MOLT-4 > 100 µM | NCI-H460 > 100 µM | SF-268 > 100 µM | SK-MEL-28 > 100 µM | SK-MEL-5 > 100 µM | SN12C > 100 µM | SNB-75 55 µM | U-251 > 100 µM

O=C(CC1Sc2ccccc2NC1=O)Nc1ccc([N+](=O)[O-])cc1[N+](=O)[O-] (stereo not given)
inactive: COLO 205 26.7 µM | HCC 2998 50.9 µM | HOP-62 40.6 µM | HT-29 17.7 µM | KM-20L2 26.7 µM | KM12 21.7 µM | LOX IMVI 16.2 µM | MOLT-4 20.1 µM | NCI-H460 23.7 µM | SF-268 16.6 µM | SK-MEL-28 17.7 µM | SK-MEL-5 15.8 µM | SN12C 16.1 µM | SNB-75 20 µM | U-251 16 µM

COCCN(C(C)=O)C1CCC2(SCCS2)c2[nH]c3ccccc3c21 (stereo not given)
inactive: CAKI-1 > 100 µM | COLO 205 > 100 µM | DU-145 > 100 µM | HCC 2998 > 100 µM | HOP-62 > 100 µM | HT-29 > 100 µM | KM12 > 100 µM | LOX IMVI > 100 µM | MCF7 > 100 µM | MOLT-4 56.9 µM | NCI-H460 77.6 µM | NCI-H522 > 100 µM | NCI/ADR-RES > 100 µM | SF-268 > 100 µM | SK-MEL-28 > 100 µM | SK-MEL-5 > 100 µM | SN12C > 100 µM | SNB-75 > 100 µM | U-251 > 100 µM

CCO[C@@H]1CCC([S+]([O-])c2ccc(C)cc2)=CO1 (stereo not given in full)
inactive: CAKI-1 > 100 µM | COLO 205 > 100 µM | DU-145 > 100 µM | HCC 2998 > 100 µM | HOP-62 > 100 µM | HT-29 > 100 µM | KM12 34.2 µM | LOX IMVI > 100 µM | MCF7 > 100 µM | MOLT-4 52.1 µM | NCI-H460 > 100 µM | NCI-H522 > 100 µM | NCI/ADR-RES > 100 µM | SF-268 > 100 µM | SK-MEL-28 > 100 µM | SK-MEL-5 > 100 µM | SN12C > 100 µM | SNB-75 > 100 µM | U-251 > 100 µM

OC(Cc1ccc2ccccc2n1)(C(F)(F)Cl)C(F)(F)Cl
inactive: CAKI-1 > 10 µM | COLO 205 > 10 µM | DU-145 > 10 µM | HCC 2998 > 10 µM | HOP-62 > 10 µM | HT-29 > 10 µM | KM12 > 10 µM | LOX IMVI > 10 µM | MCF7 > 10 µM | MOLT-4 > 10 µM | NCI-H460 > 10 µM | NCI-H522 > 10 µM | NCI/ADR-RES > 10 µM | SF-268 > 10 µM | SK-MEL-28 > 10 µM | SK-MEL-5 > 10 µM | SN12C > 10 µM | SNB-75 > 10 µM | U-251 > 10 µM

Cc1nc2ccccn2c1/N=N/c1ccc(C(=O)NN)cc1
inactive: CAKI-1 22.2 µM | COLO 205 51.2 µM | HCC 2998 75.7 µM | HOP-62 38.3 µM | HT-29 73.5 µM | KM-20L2 92.9 µM | LOX IMVI 26.3 µM | MOLT-4 5.02 µM | SF-268 19.4 µM | SK-MEL-28 80.9 µM | SK-MEL-5 22.4 µM | SN12C 27.7 µM | U-251 61.7 µM

Cc1cc2c(cc1Cl)S(=O)(=O)OC(c1ccc([N+](=O)[O-])cc1)=N2
inactive: CAKI-1 > 100 µM | COLO 205 > 100 µM | DU-145 > 100 µM | HCC 2998 > 100 µM | HOP-62 > 100 µM | HT-29 > 100 µM | KM12 > 100 µM | LOX IMVI > 100 µM | MCF7 > 100 µM | MOLT-4 > 100 µM | NCI-H460 > 100 µM | NCI-H522 > 100 µM | NCI/ADR-RES > 100 µM | SF-268 > 100 µM | SK-MEL-28 > 100 µM | SK-MEL-5 > 100 µM | SN12C > 100 µM | SNB-75 44.4 µM | U-251 > 100 µM

COc1ccc(CNC(=O)NCn2cc(-c3ccccc3)nn2)cc1
inactive: CAKI-1 > 100 µM | COLO 205 > 100 µM | DU-145 > 100 µM | HCC 2998 14.1 µM | HOP-62 > 100 µM | HT-29 > 100 µM | KM12 > 100 µM | LOX IMVI > 100 µM | MCF7 > 100 µM | MOLT-4 > 100 µM | NCI-H460 > 100 µM | NCI-H522 > 100 µM | NCI/ADR-RES > 100 µM | SF-268 > 100 µM | SK-MEL-28 > 100 µM | SK-MEL-5 > 100 µM | SN12C > 100 µM | SNB-75 > 100 µM | U-251 > 100 µM

O=C(CCc1ccccc1)NCCc1ccc(O)c(O)c1
inactive: CAKI-1 4.99 µM | COLO 205 17 µM | DU-145 > 63.2 µM | HCC 2998 53.5 µM | HOP-62 > 40.6 µM | HT-29 39.7 µM | KM12 34.8 µM | LOX IMVI 35.6 µM | MCF7 31.8 µM | MOLT-4 3.89 µM | NCI-H460 46.9 µM | NCI-H522 5.26 µM | NCI/ADR-RES 28.4 µM | SF-268 33.8 µM | SK-MEL-28 45.6 µM | SK-MEL-5 16.7 µM | SN12C 36 µM | SNB-75 84.5 µM | U-251 41.2 µM

O=C(O)C12C3C4(C(=O)O)C1C1(C(=O)O)C2C3(C(=O)O)C41 (stereo not given)
inactive: CAKI-1 > 100 µM | COLO 205 > 100 µM | DU-145 > 100 µM | HCC 2998 > 100 µM | HOP-62 > 100 µM | HT-29 > 100 µM | KM12 > 100 µM | LOX IMVI > 100 µM | MCF7 > 100 µM | MOLT-4 > 100 µM | NCI-H460 > 100 µM | NCI-H522 > 100 µM | NCI/ADR-RES > 100 µM | SF-268 > 100 µM | SK-MEL-28 > 100 µM | SK-MEL-5 > 100 µM | SN12C > 100 µM | SNB-75 > 100 µM | U-251 > 100 µM

COc1cc([C@@H]2c3cc4c(cc3[C@@H](c3c(O)cc(O)c5c3O[C@H](c3ccc(O)c(O)c3)[C@H](OC(=O)c3cc(O)c(O)c(O)c3)C5)[C@H]3COC(=O)[C@H]23)OCO4)cc(OC)c1OC
inactive: CAKI-1 13.8 µM | COLO 205 25.9 µM | DU-145 22.7 µM | HCC 2998 20.2 µM | HOP-62 11.9 µM | HT-29 17.6 µM | KM12 3.88 µM | LOX IMVI 5.77 µM | MCF7 3.75 µM | MOLT-4 7.74 µM | NCI-H460 7.33 µM | NCI-H522 3.92 µM | NCI/ADR-RES 33 µM | SF-268 5.79 µM | SK-MEL-28 > 50.7 µM | SK-MEL-5 7.38 µM | SN12C 12.9 µM | SNB-75 3.47 µM | U-251 6.12 µM
